According to article PMC10586084 (Journal of Enzyme Inhibition and Medicinal Chemistry, 2023):
Values joined by “and” are separate entries in the source; they are usually repeats but may differ in a detail not shown here. Equal entries are not always repeated.

Key:
[1] = tested on: HD-MB03 and DAOY medulloblastoma cell lines; test: cell proliferation analysis; type: cell-based, human; settings: 72 h; for effect of combination on efficacy of CDDP in reducing cell viability: compound 10 µM + cis-Pt 1.8 µM, both MB cell lines
hCA IV = hCA IV (Homo sapiens, UniProt P22748); test: stopped-flow CO2 hydrase assay, hCA IV; type: biochemical; settings: stopped flow technique, mean from three assays
hCA IV, sequence (P22748 19-284 limits assumed): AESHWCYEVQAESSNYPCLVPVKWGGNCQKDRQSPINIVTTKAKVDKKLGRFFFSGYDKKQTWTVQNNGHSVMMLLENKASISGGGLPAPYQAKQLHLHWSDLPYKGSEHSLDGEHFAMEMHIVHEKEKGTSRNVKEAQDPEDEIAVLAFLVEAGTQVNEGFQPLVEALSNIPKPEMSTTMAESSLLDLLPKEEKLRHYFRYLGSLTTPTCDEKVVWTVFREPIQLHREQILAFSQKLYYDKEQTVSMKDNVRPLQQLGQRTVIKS

hCA IX = hCA IX (Homo sapiens, UniProt Q16790); test: biochemical; type: biochemical; settings: for Ki: KI hCA IX, stopped flow technique, mean from three assays; for Selectivity index I/IX: ratio KI hCA I / KI hCA IX; for Selectivity index II/IX: ratio KI hCA II / KI hCA IX; for Selectivity index IV/IX: ratio KI hCA IV / KI hCA IX
[2] = tested on: HuTuP108 primary glioblastoma cells; test: cell proliferation analysis; type: cell-based, human; settings: 72 h; for effect of combination on the effect of TMZ: compound 10 µM + TMZ 500 µM
hCA II = hCA II (Homo sapiens, UniProt P00918); test: stopped-flow CO2 hydrase assay, hCA II; type: biochemical; settings: stopped flow technique, mean from three assays
[3] = tested on: HuTuP192 primary glioblastoma cells; test: cell proliferation analysis; type: cell-based, human; settings: 72 h; for effect of combination on the effect of TMZ: compound 10 µM + TMZ 500 µM, HuTuP192
hCA XII = hCA XII (Homo sapiens, UniProt O43570); test: stopped-flow CO2 hydrase assay, hCA XII; type: biochemical; settings: for Ki: KI hCA XII, stopped flow technique, mean from three assays; for Selectivity index I/XII: ratio KI hCA I / KI hCA XII; for Selectivity index II/XII: ratio KI hCA II / KI hCA XII; for Selectivity index IV/XII: ratio KI hCA IV / KI hCA XII
hCA XII, sequence (O43570 25-354): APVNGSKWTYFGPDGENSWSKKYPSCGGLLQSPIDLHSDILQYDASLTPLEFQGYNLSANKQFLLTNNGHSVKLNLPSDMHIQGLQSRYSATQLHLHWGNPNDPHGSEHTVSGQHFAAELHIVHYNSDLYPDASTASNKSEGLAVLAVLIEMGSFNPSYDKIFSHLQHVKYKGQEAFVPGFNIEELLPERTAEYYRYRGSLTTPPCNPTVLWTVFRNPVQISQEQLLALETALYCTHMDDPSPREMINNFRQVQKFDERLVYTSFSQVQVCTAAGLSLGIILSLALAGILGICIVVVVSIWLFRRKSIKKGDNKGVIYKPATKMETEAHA

[4] = cytotoxicity in resting peripheral blood lymphocytes; type: cell-based; settings: human
hCA I = hCA I (Homo sapiens, UniProt P00915); test: stopped-flow CO2 hydrase assay, hCA I; type: biochemical; settings: stopped flow technique, mean from three assays
hCA I, sequence (P00915 whole entry): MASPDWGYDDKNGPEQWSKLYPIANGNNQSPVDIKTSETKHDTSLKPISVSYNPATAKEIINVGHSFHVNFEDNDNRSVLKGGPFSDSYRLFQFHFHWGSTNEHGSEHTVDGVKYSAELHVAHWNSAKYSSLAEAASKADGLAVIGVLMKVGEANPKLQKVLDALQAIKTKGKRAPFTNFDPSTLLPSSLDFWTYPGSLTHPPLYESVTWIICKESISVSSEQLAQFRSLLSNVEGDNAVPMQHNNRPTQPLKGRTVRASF

| Ki (hCA IV) [nM] | Ki (hCA IX) [nM] | Selectivity index I/IX (hCA IX) | Selectivity index II/IX (hCA IX) | Selectivity index IV/IX (hCA IX) | Ki (hCA II) [nM] | Ki (hCA XII) [nM] | Selectivity index I/XII (hCA XII) | Selectivity index II/XII (hCA XII) | Selectivity index IV/XII (hCA XII) | Ki (hCA I) [nM] | Compound | viability reduction by CDDP alone ([1]; CDDP concentration used for combination (cis-Pt 1.8 µM)) | effect of combination on efficacy of CDDP in reducing cell viability [1] | effect of combination on the effect of TMZ [2] | effect of combination on the effect of TMZ [3] | GI50 at 72 h [4] [nM] | decrease in viability ([3]; 10 µM, HuTuP192, hypoxic conditions) | response of cells to TMZ ([2]; TMZ 500 µM) |
| --- | --- | --- | --- | --- | --- | --- | --- | --- | --- | --- | --- | --- | --- | --- | --- | --- | --- | --- |
| 4850 | 26.2 | 53.5 | 2.1 | 185 | 55.2 | 70.2 | 20.0 | 0.8 | 69.0 | 1400 | Cc1cccc(-c2ccnc3nc(Nc4ccc(S(N)(=O)=O)cc4)nn23)c1 [Compound 1u, 4-((7-(m-Tolyl)-[1,2,4]triazolo[1,5-a]pyrimidin-2-yl)amino)benzenesulfonamide] |  |  |  |  |  |  |  |
| 8820 | 4.7 | 570 | 9.1 | 1877 | 42.8 | 30.4 | 88.1 | 1.4 | 290 | 2680 | Cc1ccccc1-c1ccnc2nc(Nc3ccc(S(N)(=O)=O)cc3)nn12 [Compound 1v, 4-((7-(o-Tolyl)-[1,2,4]triazolo[1,5-a]pyrimidin-2-yl)amino)benzenesulfonamide] |  |  |  |  |  |  |  |
| 2000 | 50.8 | 32.0 | 1.8 | 39.4 | 89.6 | 39.8 | 40.9 | 2.2 | 50.3 | 1630 | COc1ccc(-c2ccnc3nc(Nc4ccc(S(N)(=O)=O)cc4)nn23)cc1 [Compound 1w, 4-((7-(4-Methoxyphenyl)-[1,2,4]triazolo[1,5-a]pyrimidin-2-yl)amino)benzenesulfonamide] |  |  |  |  |  |  |  |
| 559 | 5.1 | 207 | 6.6 | 110 | 33.8 | 12.5 | 84.5 | 2.7 | 44.8 | 1060 | COc1cccc(-c2ccnc3nc(Nc4ccc(S(N)(=O)=O)cc4)nn23)c1 [Compound 1x, 4-((7-(3-Methoxyphenyl)-[1,2,4]triazolo[1,5-a]pyrimidin-2-yl)amino)benzenesulfonamide] |  | significantly improved the efficacy of CDDP |  |  | > 10000 | most potent |  |
| 6320 | 11 | 200 | 6.6 | 575 | 72.9 | 31.6 | 69.5 | 2.3 | 200 | 2200 | COc1ccccc1-c1ccnc2nc(Nc3ccc(S(N)(=O)=O)cc3)nn12 [Compound 1y, 4-((7-(2-Methoxyphenyl)-[1,2,4]triazolo[1,5-a]pyrimidin-2-yl)amino)benzenesulfonamide] |  |  | did not significantly improve the effect of TMZ | did not significantly improve the effect of TMZ | > 10000 |  |  |
| 3650 | 43.5 | 51.9 | 1.6 | 83.9 | 69.3 | 55.2 | 40.9 | 1.2 | 66.1 | 2260 | CCOc1ccc(-c2ccnc3nc(Nc4ccc(S(N)(=O)=O)cc4)nn23)cc1 [Compound 1z, 4-((7-(4-Ethoxyphenyl)-[1,2,4]triazolo[1,5-a]pyrimidin-2-yl)amino)benzenesulfonamide] |  |  |  |  |  |  |  |

Continued, compound first:

| Compound | Ki (hCA IV) [nM] | Ki (hCA IX) [nM] | Selectivity index I/IX (hCA IX) | Selectivity index II/IX (hCA IX) | Selectivity index IV/IX (hCA IX) | Ki (hCA II) [nM] | Ki (hCA XII) [nM] | Selectivity index I/XII (hCA XII) | Selectivity index II/XII (hCA XII) | Selectivity index IV/XII (hCA XII) | Ki (hCA I) [nM] | viability reduction by CDDP alone ([1]; CDDP concentration used for combination (cis-Pt 1.8 µM)) | effect of combination on efficacy of CDDP in reducing cell viability [1] | effect of combination on the effect of TMZ [2] | effect of combination on the effect of TMZ [3] | GI50 at 72 h [4] [nM] | decrease in viability ([3]; 10 µM, HuTuP192, hypoxic conditions) | response of cells to TMZ ([2]; TMZ 500 µM) |
| --- | --- | --- | --- | --- | --- | --- | --- | --- | --- | --- | --- | --- | --- | --- | --- | --- | --- | --- |
| [NH2][Pt]([NH2])([Cl])[Cl] [CDDP, cisplatin, reference compound] |  |  |  |  |  |  |  |  |  |  |  | around 50% |  |  |  |  |  |  |
| NS(=O)(=O)c1ccc(Nc2nc3nccc(-c4ccccc4Cl)n3n2)cc1 [Compound 1m, 4-((7-(2-Chlorophenyl)-[1,2,4]triazolo[1,5-a]pyrimidin-2-yl)amino)benzenesulfonamide] | 6480 | 14.8 | 618 | 10 and 10.5 | 438 | 155 | 16.9 | 541 | 9.2 | 384 | 9150 |  | significantly improved the efficacy of CDDP | did not significantly improve the effect of TMZ | did not significantly improve the effect of TMZ | > 10000 |  |  |
| NS(=O)(=O)c1ccc(Nc2nc3nccc(-c4cccc(Br)c4)n3n2)cc1 [Compound 1o, 4-((7-(3-Bromophenyl)-[1,2,4]triazolo[1,5-a]pyrimidin-2-yl)amino)benzenesulfonamide] | 4330 | 38.1 | 241 | 3.5 | 114 | 133 | 78.6 | 117 | 1.7 | 55.1 | 9200 |  |  |  |  |  |  |  |
| NS(=O)(=O)c1ccc(Nc2nc3nccc(-c4ccc(I)cc4)n3n2)cc1 [Compound 1p, 4-((7-(4-Iodophenyl)-[1,2,4]triazolo[1,5-a]pyrimidin-2-yl)amino)benzenesulfonamide] | 8850 | 95.7 | 79.7 | 5.8 | 92.5 | 559 | 39 | 196 | 14.3 | 227 | 7630 |  |  |  |  |  |  |  |
| NS(=O)(=O)c1ccc(Nc2nc3nccc(-c4ccc([N+](=O)[O-])cc4)n3n2)cc1 [Compound 1q, 4-((7-(4-Nitrophenyl)-[1,2,4]triazolo[1,5-a]pyrimidin-2-yl)amino)benzenesulfonamide] | 3260 | 69.4 | 61.8 | 1.2 | 46.9 | 86.3 | 42.1 | 102 | 2.0 | 77.4 | 4290 |  |  |  |  |  |  |  |
| NS(=O)(=O)c1ccc(Nc2nc3nccc(-c4cccc([N+](=O)[O-])c4)n3n2)cc1 [Compound 1r, 4-((7-(3-Nitrophenyl)-[1,2,4]triazolo[1,5-a]pyrimidin-2-yl)amino)benzenesulfonamide] | 690 | 49.9 | 69.5 | 1.0 | 13.8 | 48 | 4.3 | 806 | 11.2 | 160 | 3470 |  |  |  |  |  |  |  |
| NS(=O)(=O)c1ccc(Nc2nc3nccc(-c4ccccc4[N+](=O)[O-])n3n2)cc1 [Compound 1s, 4-((7-(2-Nitrophenyl)-[1,2,4]triazolo[1,5-a]pyrimidin-2-yl)amino)benzenesulfonamide] | 3980 | 20.4 | 414 | 3.8 | 195 | 77.1 | 48.9 | 173 | 1.6 | 81.4 | 8450 |  |  |  |  |  |  |  |
| Cc1ccc(-c2ccnc3nc(Nc4ccc(S(N)(=O)=O)cc4)nn23)cc1 [Compound 1t, 4-((7-(p-Tolyl)-[1,2,4]triazolo[1,5-a]pyrimidin-2-yl)amino)benzenesulfonamide] | 2290 | 41.5 | 35.5 | 1.5 | 55.1 | 64 | 61.2 | 24.0 | 1.0 | 37.4 | 1470 |  |  |  |  |  |  |  |
| Cn1nnc2c(C(N)=O)ncn2c1=O [TMZ, temozolomide, reference compound] |  |  |  |  |  |  |  |  |  |  |  |  |  |  |  |  |  | resistant |
